Assays:
Cholinesterase = Cholinesterase (Equus caballus, UniProt P81908); assay: Inhibition of equine serum BuChE using acetylthiocholine iodide as substrate after 8 mins by Ellman's method
Acetylcholinesterase = Acetylcholinesterase (Electrophorus electricus, UniProt O42275); assay: Inhibition of electric eel AChE using acetylthiocholine iodide as substrate after 10 mins by Ellman's method
[1] = molecular target: Amyloid-beta precursor protein (Homo sapiens) (UniProt P05067); assay: Inhibition of self-induced amyloid beta (1 to 42) (unknown origin) aggregation at 50 uM measured after 24 hrs by ThT fluorescence assay relative to control
[2] = Cytotoxicity against human A549 cells assessed as cell viability at 0.9 uM after 48 hrs by MTT assay relative to control; format: cell-based; conditions: read-out: Activity
[3] = molecular target: Amyloid-beta precursor protein (Homo sapiens) (UniProt P05067); assay: Inhibition of self-induced amyloid beta (1 to 42) (unknown origin) aggregation at 10 uM measured after 24 hrs by ThT fluorescence assay relative to control
A549 = assay: Cytotoxicity against human A549 cells assessed as cell viability after 48 hrs by MTT assay; format: cell-based; conditions: A549, 48 h
[4] = molecular target: Amyloid-beta precursor protein (Homo sapiens) (UniProt P05067); assay: Inhibition of self-induced amyloid beta (1 to 42) (unknown origin) aggregation at 5 uM measured after 24 hrs by ThT fluorescence assay relative to control
[5] = molecular target: Amyloid-beta precursor protein (Homo sapiens) (UniProt P05067); assay: Inhibition of self-induced amyloid beta (1 to 42) (unknown origin) aggregation at 25 uM measured after 24 hrs by ThT fluorescence assay relative to control
BuChE (equine serum) = assay: Selectivity index, ratio of IC50 for human A549 cells to IC50 for equine serum BuChE; format: toxicity; conditions: read-out: Ratio IC50
AChE (electric eel) = assay: Selectivity index, ratio of IC50 for human A549 cells to IC50 for electric eel AChE; format: toxicity; conditions: read-out: Ratio IC50
[6] = Cytotoxicity against human A549 cells assessed as cell viability at 2.3 uM after 48 hrs by MTT assay relative to control; format: cell-based; conditions: read-out: Activity
Hyaluronidase = molecular target: T1, Hyaluronidase (Bos taurus, UniProt Q8SQG8+Q5E985); assay: Inhibition of bovine testes hyaluronidase using hyaluronic acid as substrate preincubated for 10 mins in dark followed by incubation with substrate for 45 mins and subsequent addition of serum albumin measured after 10 mins by turbidimetric method; format: protein assay
T1 sequence (Q8SQG8 whole entry): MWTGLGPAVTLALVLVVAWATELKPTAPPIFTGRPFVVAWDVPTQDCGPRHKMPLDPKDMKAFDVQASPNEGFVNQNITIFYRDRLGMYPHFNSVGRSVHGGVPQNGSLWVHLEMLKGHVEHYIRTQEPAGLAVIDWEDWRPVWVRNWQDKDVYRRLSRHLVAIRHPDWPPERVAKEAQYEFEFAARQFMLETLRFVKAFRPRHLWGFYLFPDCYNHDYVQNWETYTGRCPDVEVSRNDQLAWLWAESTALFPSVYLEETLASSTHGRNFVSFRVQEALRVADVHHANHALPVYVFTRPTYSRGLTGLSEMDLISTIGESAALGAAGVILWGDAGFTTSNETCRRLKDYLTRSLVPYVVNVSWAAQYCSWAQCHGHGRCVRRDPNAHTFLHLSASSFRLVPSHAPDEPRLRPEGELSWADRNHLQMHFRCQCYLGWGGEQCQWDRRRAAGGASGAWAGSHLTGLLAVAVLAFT
T1 sequence (Q5E985 whole entry): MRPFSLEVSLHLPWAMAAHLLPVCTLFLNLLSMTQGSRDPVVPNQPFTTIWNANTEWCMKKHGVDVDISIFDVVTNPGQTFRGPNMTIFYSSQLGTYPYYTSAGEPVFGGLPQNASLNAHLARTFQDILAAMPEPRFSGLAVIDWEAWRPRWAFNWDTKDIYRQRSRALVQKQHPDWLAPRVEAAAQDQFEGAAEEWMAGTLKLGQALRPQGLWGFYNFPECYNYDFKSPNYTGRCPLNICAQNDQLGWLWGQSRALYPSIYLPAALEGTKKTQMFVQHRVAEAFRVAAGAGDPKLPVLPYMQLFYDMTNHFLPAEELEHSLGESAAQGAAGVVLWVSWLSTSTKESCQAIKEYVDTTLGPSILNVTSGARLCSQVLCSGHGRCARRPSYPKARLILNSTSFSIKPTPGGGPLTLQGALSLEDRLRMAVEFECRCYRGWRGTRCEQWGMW

Sequence of Acetylcholinesterase (O42275 whole entry): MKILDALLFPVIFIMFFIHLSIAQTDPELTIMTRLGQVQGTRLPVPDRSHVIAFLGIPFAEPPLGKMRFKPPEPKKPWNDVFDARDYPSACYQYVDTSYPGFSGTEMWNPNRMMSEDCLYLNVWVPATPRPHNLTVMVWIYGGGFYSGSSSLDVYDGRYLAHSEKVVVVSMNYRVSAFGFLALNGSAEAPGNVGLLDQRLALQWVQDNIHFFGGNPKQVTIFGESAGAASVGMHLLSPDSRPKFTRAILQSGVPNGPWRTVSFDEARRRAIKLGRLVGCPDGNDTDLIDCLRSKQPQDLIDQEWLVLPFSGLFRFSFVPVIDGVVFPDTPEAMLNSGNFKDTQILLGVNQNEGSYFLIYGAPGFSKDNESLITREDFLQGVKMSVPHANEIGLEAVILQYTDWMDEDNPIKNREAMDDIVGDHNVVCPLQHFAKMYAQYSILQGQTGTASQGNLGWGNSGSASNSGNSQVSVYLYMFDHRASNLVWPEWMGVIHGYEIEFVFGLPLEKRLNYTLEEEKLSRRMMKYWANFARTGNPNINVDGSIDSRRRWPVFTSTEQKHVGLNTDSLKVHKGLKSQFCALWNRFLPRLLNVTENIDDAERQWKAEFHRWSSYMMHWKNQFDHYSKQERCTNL
Sequence of Cholinesterase (P81908 whole entry): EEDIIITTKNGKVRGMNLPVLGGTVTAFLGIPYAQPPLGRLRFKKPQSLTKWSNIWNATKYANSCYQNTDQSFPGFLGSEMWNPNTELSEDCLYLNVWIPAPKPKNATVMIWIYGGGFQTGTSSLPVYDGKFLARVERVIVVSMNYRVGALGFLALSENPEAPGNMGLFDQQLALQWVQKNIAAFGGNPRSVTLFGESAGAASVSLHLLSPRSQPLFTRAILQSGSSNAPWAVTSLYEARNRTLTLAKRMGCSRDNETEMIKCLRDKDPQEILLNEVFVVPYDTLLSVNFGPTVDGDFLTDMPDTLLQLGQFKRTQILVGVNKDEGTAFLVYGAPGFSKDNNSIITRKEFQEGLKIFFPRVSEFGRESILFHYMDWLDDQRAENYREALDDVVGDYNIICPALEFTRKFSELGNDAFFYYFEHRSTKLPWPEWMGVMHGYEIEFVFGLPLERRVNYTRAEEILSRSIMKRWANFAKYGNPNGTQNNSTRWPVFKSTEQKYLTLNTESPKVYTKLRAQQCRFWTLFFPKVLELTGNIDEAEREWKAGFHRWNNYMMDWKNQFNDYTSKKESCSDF
Sequence of Amyloid-beta precursor protein (Homo sapiens) (P05067 whole entry): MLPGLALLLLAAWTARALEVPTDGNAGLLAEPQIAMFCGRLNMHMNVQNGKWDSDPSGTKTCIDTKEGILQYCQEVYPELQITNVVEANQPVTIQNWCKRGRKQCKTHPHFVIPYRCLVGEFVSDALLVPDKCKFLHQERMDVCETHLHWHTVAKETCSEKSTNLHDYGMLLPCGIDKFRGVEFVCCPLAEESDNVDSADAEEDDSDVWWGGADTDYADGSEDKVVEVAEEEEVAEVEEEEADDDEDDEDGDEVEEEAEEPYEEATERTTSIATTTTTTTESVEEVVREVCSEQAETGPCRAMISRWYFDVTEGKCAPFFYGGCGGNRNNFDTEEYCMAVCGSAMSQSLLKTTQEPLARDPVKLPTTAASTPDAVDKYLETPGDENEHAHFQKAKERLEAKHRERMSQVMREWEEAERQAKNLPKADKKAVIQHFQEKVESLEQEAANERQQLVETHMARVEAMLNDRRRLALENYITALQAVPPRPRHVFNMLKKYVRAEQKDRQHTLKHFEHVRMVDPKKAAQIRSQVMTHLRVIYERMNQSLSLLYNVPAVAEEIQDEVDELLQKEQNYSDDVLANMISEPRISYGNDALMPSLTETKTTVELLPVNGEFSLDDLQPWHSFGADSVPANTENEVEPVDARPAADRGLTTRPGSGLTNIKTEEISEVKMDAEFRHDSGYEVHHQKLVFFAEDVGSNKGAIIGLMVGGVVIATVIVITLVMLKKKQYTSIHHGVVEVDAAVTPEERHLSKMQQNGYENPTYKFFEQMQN

| Structure (SMILES) | IC50 (Cholinesterase) | IC50 (Acetylcholinesterase) | also measured |
| --- | --- | --- | --- |
| O=C(NCCCCCNc1c2c(nc3ccccc13)CCCC2)c1cnc(Cl)c(Cl)c1 | 13.5 nM | 2.9 nM |  |
| O=C(NCCCCCCCCNc1c2c(nc3ccccc13)CCCC2)c1cnc(Cl)c(Cl)c1 | 10.7 nM | 10.3 nM |  |
| Cl.O=C(NCCCNc1c2c(nc3ccccc13)CCCC2)c1cnc(Cl)c(Cl)c1 | 160 nM | 1.02 nM | inhibition [1]: 46.6%; viability at 48 h, 0.9 µM [2]: 82.3%; inhibition [3]: 26.6%; IC50 (A549): 2000 nM; inhibition [4]: 19.4%; inhibition [5]: 31.1%; selectivity ratio (BuChE (equine serum)): 13; selectivity ratio (AChE (electric eel)): 1960; viability at 48 h, 2.3 µM [6]: 46%; IC50 (Hyaluronidase): 465750 nM |
| O=C(NCCCCCCCNc1c2c(nc3ccccc13)CCCC2)c1cnc(Cl)c(Cl)c1 | 11.4 nM | 12.3 nM |  |
| O=C(NCCCCCCCCCNc1c2c(nc3ccccc13)CCCC2)c1cnc(Cl)c(Cl)c1 | 3.33 nM | 3.12 nM |  |
| O=C(NCCNc1c2c(nc3ccccc13)CCCC2)c1cnc(Cl)c(Cl)c1 | 726 nM | 16.7 nM |  |
| O=C(NCCCCNc1c2c(nc3ccccc13)CCCC2)c1cnc(Cl)c(Cl)c1 | 41.4 nM | 1.65 nM |  |
| O=C(NCCCCCCNc1c2c(nc3ccccc13)CCCC2)c1cnc(Cl)c(Cl)c1 | 12.9 nM | 4.2 nM |  |
